# Data from PubChem BioAssay AID292 (DTP/NCI, 2004).
# “And” between values parts separate entries of the source, which are not always exact repeats. Equal values may be shown once. Inconclusive results and toxic doses are left out.
# Tested on: B6C3F1 mice, ip Sarcoma M5076, median survival T/C
# Assay: NCI In Vivo Anticancer Drug Screen. Data for tumor model Sarcoma M5076 (intraperitoneal) in B6C3F1 mice
# Settings: endpoint: median survival time, higher = longer survival
# Summary of the method: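 Transplantable tumour in mice; compound-treated vs vehicle-treated groups. Read-out: survival. Value = treated/control ratio.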
# [1] = dose: 50.0 mg/kg/injection, schedule: Q04DX004 (ip), vehicle: saline
# [2] = dose: 100.0 mg/kg/injection, schedule: Q04DX004 (ip), vehicle: saline
# [3] = dose: 200.0 mg/kg/injection, schedule: Q04DX004 (ip), vehicle: saline
# [4] = dose: 400.0 mg/kg/injection, schedule: Q04DX004 (ip), vehicle: saline
# [5] = dose: 50.0 mg/kg/injection, schedule: Q04DX004 (ip), vehicle: Klucel (hydroxypropylcellulose) (HPC)
# [6] = dose: 100.0 mg/kg/injection, schedule: Q04DX004 (ip), vehicle: Klucel (hydroxypropylcellulose) (HPC)
# [7] = dose: 200.0 mg/kg/injection, schedule: Q04DX004 (ip), vehicle: Klucel (hydroxypropylcellulose) (HPC)
# [8] = dose: 400.0 mg/kg/injection, schedule: Q04DX004 (ip), vehicle: Klucel (hydroxypropylcellulose) (HPC)
# [9] = dose: 37.5 mg/kg/injection, schedule: Q04DX004 (ip), vehicle: saline with Tween-80
# [10] = dose: 75.0 mg/kg/injection, schedule: Q04DX004 (ip), vehicle: saline with Tween-80
# [11] = dose: 150.0 mg/kg/injection, schedule: Q04DX004 (ip), vehicle: saline with Tween-80
# [12] = dose: 300.0 mg/kg/injection, schedule: Q04DX004 (ip), vehicle: saline with Tween-80
# [13] = dose: 25.0 mg/kg/injection, schedule: Q04DX004 (ip), vehicle: saline with Tween-80
# [14] = dose: 50.0 mg/kg/injection, schedule: Q04DX004 (ip), vehicle: saline with Tween-80
# [15] = dose: 100.0 mg/kg/injection, schedule: Q04DX004 (ip), vehicle: saline with Tween-80
# [16] = dose: 200.0 mg/kg/injection, schedule: Q04DX004 (ip), vehicle: saline with Tween-80
# [17] = dose: 400.0 mg/kg/injection, schedule: Q04DX004 (ip), vehicle: saline with Tween-80
smiles,measurement,setting,value
NCCCC(N)(C(=O)O)C(F)F (stereo not given),T/C,[1],96 % of control
same,T/C,[2],99 % of control
same,T/C,[3],99 % of control
same,T/C,[4],99 % of control
same,T/C,"dose: 800.0 mg/kg/injection, schedule: Q04DX004 (ip), vehicle: saline",102 % of control
COc1cc2cc(c1Cl)N(C)C(=O)C[C@H](OC(=O)[C@H](C)N(C)C(C)=O)[C@]1(C)O[C@H]1[C@H](C)[C@@H]1C[C@@](O)(NC(=O)O1)[C@H](OC)C=C/C=C(\C)C2,T/C,"dose: 18.75 micrograms/kg/injection, schedule: Q04DX004 (ip), vehicle: saline",101 % of control
same,T/C,"dose: 37.5 micrograms/kg/injection, schedule: Q04DX004 (ip), vehicle: saline",103 % of control and 119 % of control
same,T/C,"dose: 37.5 micrograms/kg/injection, schedule: Q04DX005 (ip), vehicle: saline",108 % of control and 217 % of control
same,T/C,"dose: 75.0 micrograms/kg/injection, schedule: Q04DX004 (ip), vehicle: saline",112 % of control
same,T/C,"dose: 75.0 micrograms/kg/injection, schedule: Q04DX005 (ip), vehicle: saline",119 % of control
same,T/C,"dose: 150.0 micrograms/kg/injection, schedule: Q04DX004 (ip), vehicle: saline",114 % of control
same,T/C,"dose: 300.0 micrograms/kg/injection, schedule: Q04DX004 (ip), vehicle: saline",114 % of control
CC(C)N1C(=O)N(Cl)C2C1N(Cl)C(=O)N2Cl (stereo not given),T/C,"dose: 6.25 mg/kg/injection, schedule: Q04DX004 (ip), vehicle: sodium bicarbonate",102 % of control
same,T/C,"dose: 12.5 mg/kg/injection, schedule: Q04DX004 (ip), vehicle: sodium bicarbonate",107 % of control
same,T/C,"dose: 25.0 mg/kg/injection, schedule: Q04DX004 (ip), vehicle: sodium bicarbonate",94 % of control
same,T/C,[1],91 % of control
same,T/C,"dose: 50.0 mg/kg/injection, schedule: Q04DX004 (ip), vehicle: sodium bicarbonate",114 % of control
same,T/C,"dose: 100.0 mg/kg/injection, schedule: Q04DX004 (ip), vehicle: sodium bicarbonate",109 % of control
CN1CCC2CC1c1ccn(C)c1C2=O (stereo not given),T/C,"dose: 3.75 mg/kg/injection, schedule: Q04DX004 (ip), vehicle: saline",106 % of control
same,T/C,"dose: 7.5 mg/kg/injection, schedule: Q04DX004 (ip), vehicle: saline",102 % of control
same,T/C,"dose: 15.0 mg/kg/injection, schedule: Q04DX004 (ip), vehicle: saline",107 % of control
Cc1ccc2c(c1)C1(C)OC(C=CC1=O)O2 (stereo not given),T/C,"dose: 25.0 mg/kg/injection, schedule: Q04DX004 (ip), vehicle: Klucel (hydroxypropylcellulose) (HPC)",96 % of control
same,T/C,[5],103 % of control
O=C1NC(=O)N(c2ccc(Cl)c(Cl)c2)C1=O,T/C,[5],93 % of control
same,T/C,[6],95 % of control
same,T/C,[7],92 % of control
same,T/C,[8],89 % of control
N#Cc1ccc(NN=O)nc1,T/C,"dose: 6.25 mg/kg/injection, schedule: Q04DX004 (ip), vehicle: water",124 % of control
same,T/C,"dose: 6.5 mg/kg/injection, schedule: Q04DX004 (ip), vehicle: water",116 % of control
same,T/C,"dose: 25.0 mg/kg/injection, schedule: Q04DX004 (ip), vehicle: water",152 % of control
same,T/C,"dose: 50.0 mg/kg/injection, schedule: Q04DX004 (ip), vehicle: water",160 % of control and 177 % of control
same,T/C,"dose: 83.0 mg/kg/injection, schedule: Q04DX004 (ip), vehicle: water",182 % of control
same,T/C,"dose: 100.0 mg/kg/injection, schedule: Q04DX004 (ip), vehicle: water",118 % of control
same,T/C,"dose: 139.0 mg/kg/injection, schedule: Q04DX004 (ip), vehicle: water",200 % of control
CCn1c2ccc(N)cc2c2c3ncc4cccn4c3ccc21,T/C,[9],101 % of control
same,T/C,[10],94 % of control
same,T/C,[11],97 % of control
same,T/C,[12],89 % of control
CC(=O)C1C(=O)C(=O)N(c2ccc(C)cc2C)C1=O (stereo not given),T/C,[5],102 % of control
same,T/C,[6],98 % of control
CC(=O)C1C(=O)C(=O)N(c2ccc(Cl)cc2)C1=O (stereo not given),T/C,[5],111 % of control
same,T/C,[6],103 % of control
same,T/C,[7],99 % of control
same,T/C,[8],93 % of control
same,T/C,"dose: 800.0 mg/kg/injection, schedule: Q04DX004 (ip), vehicle: Klucel (hydroxypropylcellulose) (HPC)",92 % of control
CC(=O)C[n+]1ccccc1Sc1ccc(Cl)cc1,T/C,[13],98 % of control
same,T/C,[14],86 % of control
same,T/C,[15],88 % of control
Clc1cc2c(nn1)Nc1ccccc1S2,T/C,[14],100 % of control
same,T/C,[15],95 % of control
same,T/C,[16],95 % of control
Cc1ccc(-n2c(CSc3ccc(Cl)cc3)nnc2SCc2nc3ccccc3[nH]2)cc1,T/C,"dose: 18.75 mg/kg/injection, schedule: Q04DX004 (ip), vehicle: saline with Tween-80",95 % of control
same,T/C,[9],104 % of control
same,T/C,[10],100 % of control
same,T/C,[11],95 % of control
ClC1(Cl)Cc2ccccc21,T/C,[14],103 % of control
same,T/C,[15],114 % of control
same,T/C,[16],92 % of control
same,T/C,[17],87 % of control
CCn1c2ccccc2c2c3ncc4cccn4c3ccc21,T/C,[9],96 % of control
same,T/C,[10],96 % of control
same,T/C,[11],93 % of control
same,T/C,[12],92 % of control
same,T/C,"dose: 600.0 mg/kg/injection, schedule: Q04DX004 (ip), vehicle: saline with Tween-80",89 % of control
C=C1C(O)C2(O)OCC34C(CC5C(C)=CC(=O)C(O)C5(C)C23)OC(=O)C(OC(=O)C/C=C/CCCCCCCC)C14 (stereo not given),T/C,"dose: 2.0 mg/kg/injection, schedule: Q04DX004 (ip), vehicle: saline + alcohol",96 % of control
same,T/C,"dose: 2.88 mg/kg/injection, schedule: Q04DX004 (ip), vehicle: saline + alcohol",116 % of control
same,T/C,"dose: 2.89 mg/kg/injection, schedule: Q04DX004 (ip), vehicle: saline + alcohol",112 % of control
same,T/C,"dose: 4.0 mg/kg/injection, schedule: Q04DX004 (ip), vehicle: saline + alcohol",107 % of control
same,T/C,"dose: 4.8 mg/kg/injection, schedule: Q04DX004 (ip), vehicle: saline + alcohol",110 % of control
same,T/C,"dose: 13.33 mg/kg/injection, schedule: Q04DX004 (ip), vehicle: saline + alcohol",124 % of control
same,T/C,"dose: 16.0 mg/kg/injection, schedule: Q04DX004 (ip), vehicle: saline + alcohol",114 % of control
N=C(N)Sc1cc(O)ccc1O,T/C,"dose: 43.75 mg/kg/injection, schedule: Q04DX004 (ip), vehicle: saline with Tween-80",110 % of control
same,T/C,"dose: 87.5 mg/kg/injection, schedule: Q04DX004 (ip), vehicle: saline with Tween-80",109 % of control
same,T/C,"dose: 175.0 mg/kg/injection, schedule: Q04DX004 (ip), vehicle: saline with Tween-80",111 % of control
same,T/C,"dose: 350.0 mg/kg/injection, schedule: Q04DX004 (ip), vehicle: saline with Tween-80",110 % of control
CCCCCCCC1C(=O)OC2CC3C(C)=CC(=O)C(O)C3(C)C3C4(O)OCC23C1C(C)C4O (stereo not given),T/C,"dose: 2.5 mg/kg/injection, schedule: Q04DX004 (ip), vehicle: Klucel (hydroxypropylcellulose) (HPC)",109 % of control
same,T/C,"dose: 5.0 mg/kg/injection, schedule: Q04DX004 (ip), vehicle: Klucel (hydroxypropylcellulose) (HPC)",108 % of control
same,T/C,"dose: 10.0 mg/kg/injection, schedule: Q04DX004 (ip), vehicle: Klucel (hydroxypropylcellulose) (HPC)",109 % of control
same,T/C,"dose: 20.0 mg/kg/injection, schedule: Q04DX004 (ip), vehicle: Klucel (hydroxypropylcellulose) (HPC)",106 % of control
Nc1ccn([C@@H](C=O)C[C@@H](C=O)CO)c(=O)n1,T/C,"dose: 25.0 mg/kg/injection, schedule: Q04DX004 (ip), vehicle: saline",99 % of control
same,T/C,[1],99 % of control
same,T/C,[2],103 % of control
same,T/C,[3],108 % of control
same,T/C,[4],118 % of control
CCn1c2ccccc2c2cc(N=Nc3cc4ccccc4cc3O)ccc21,T/C,"dose: 43.75 mg/kg/injection, schedule: Q04DX004 (ip), vehicle: Klucel (hydroxypropylcellulose) (HPC)",89 % of control
NC(=S)c1ncn(C2OC(COC=O)C(OC=O)C2OC=O)c1NC=O (stereo not given),T/C,"dose: 86.4 mg/kg/injection, schedule: Q04DX004 (ip), vehicle: Klucel (hydroxypropylcellulose) (HPC)",182 % of control
same,T/C,"dose: 144.0 mg/kg/injection, schedule: Q04DX004 (ip), vehicle: Klucel (hydroxypropylcellulose) (HPC)",174 % of control
same,T/C,"dose: 240.0 mg/kg/injection, schedule: Q04DX004 (ip), vehicle: Klucel (hydroxypropylcellulose) (HPC)",184 % of control
same,T/C,[8],168 % of control and 198 % of control
same,T/C,"dose: 666.67 mg/kg/injection, schedule: Q04DX004 (ip), vehicle: Klucel (hydroxypropylcellulose) (HPC)",229 % of control
Cc1c(/C=C/C(=O)O)no[n+]1[O-],T/C,[13],100 % of control
same,T/C,[14],101 % of control
same,T/C,[15],101 % of control
same,T/C,[16],101 % of control
same,T/C,[17],93 % of control
